# Target: TEAD2 (Homo sapiens (Human), UniProt Q15562)
# Assay: In vitro palmitoylation (TEAD2 autopalmitoylation, streptavidin blot)
# Format: biochemical
# Details: compound at 10 μM
# Protocol: Recombinant GST-TEAD2 or His6TEAD2 (500 ng) protein was pre-incubated with the compounds at indicated concentrations for 15 min. and then incubated with 1 μM of alkyne palmitoyl-5 CoA (Cayman Chemical) for 30 min or 50 mM MES, pH 6.4, followed by Click reaction with biotin-azide as previously described (Zheng, B. et al., J. Am. Chem. Soc., 2013, 135, 7082-7085). Click reaction was performed with 100 μM biotin-azide, 1 mM tris(2-carboxyethyl) phosphine hydrochloride (TCEP), 100 μM tris[(1-benzyl-1H-1,2,3-triazol-4-yl) methyl] amine (TBTA) and 1 mM CuSO4 for 1 h at RT.
# The reactions were terminated by the addition of 12 μL of 6×SDS-sample loading buffer (50 mM Tris-HCl, pH 6.8, 6% SDS, 48% Glycerol, 0.03% Bromophenol Blue, 30 mM EDTA, 9% MeSH). Samples were analysed by SDS-PAGE and Western blot was performed by probing with streptavidin HRP and histidine HRP antibodies independently. Bands intensity obtained from streptavidin blot were quantified using BIORAD, Gel doc system and the percentage of inhibition of Tead2 auto palmitoylation is determined by comparing to the DMSO control treated samples.
# These compounds were tested for activity in inhibiting TEAD2 palmitoylation in the assay described above.
# Chain of TEAD2 (Q15562 whole entry): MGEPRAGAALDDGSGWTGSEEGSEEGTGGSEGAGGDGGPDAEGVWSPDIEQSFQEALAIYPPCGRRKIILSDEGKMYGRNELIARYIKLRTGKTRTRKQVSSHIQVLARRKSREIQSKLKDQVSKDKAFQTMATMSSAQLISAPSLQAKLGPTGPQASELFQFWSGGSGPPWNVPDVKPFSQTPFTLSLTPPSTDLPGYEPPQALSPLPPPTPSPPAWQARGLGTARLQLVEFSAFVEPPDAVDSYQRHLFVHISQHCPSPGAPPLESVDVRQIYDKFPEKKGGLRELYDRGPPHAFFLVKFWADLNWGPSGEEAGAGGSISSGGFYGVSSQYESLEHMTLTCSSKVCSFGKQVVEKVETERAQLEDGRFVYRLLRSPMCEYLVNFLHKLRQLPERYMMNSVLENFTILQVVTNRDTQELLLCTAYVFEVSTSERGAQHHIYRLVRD
row,inhibition at 10 µM [%],SMILES
1,50,O=C(Nc1ccc(C23CC4CC(CC(C4)C2)C3)cc1)c1cccnc1Nc1cccc(C(F)(F)F)c1
2,20,O=C(Nc1ccc(C23CC4CC(CC(C4)C2)C3)cc1Cl)c1ccc2nc[nH]c2c1
3,8,O=C(CN1CCC[C@H]1C(=O)O)Nc1ccc(C23CC4CC(CC(C4)C2)C3)cc1
4,20,Clc1cc(C23CC4CC(CC(C4)C2)C3)ccc1Nc1ccc(Nc2ccccc2-c2nnn[nH]2)cc1

# Same assay, conditions: compound at 10 μM; Table 2
inhibition at 10 µM [%],% of inhibition of TEAD2 palmitoylation at 10 μM [%],SMILES
0,,COC(=O)c1ccccc1Nc1cc(Nc2ccc(C34CC5CC(CC(C5)C3)C4)cc2)cc(C(F)(F)F)c1 [Compound 3]
99,,O=C(O)c1cccc(NC(=O)c2ccc(Nc3ccc(C45CC6CC(CC(C6)C4)C5)cc3)cc2)c1 [Compound 198]
12,,O=C1CCc2ccccc2N1c1ccc(Nc2ccc(C34CC5CC(CC(C5)C3)C4)cc2)cc1 [Compound 15]
100,,CN(c1cccc(Nc2ccc(C34CC5CC(CC(C5)C3)C4)cc2Cl)c1)c1ncccc1C(=O)O [Compound 135]
87,,O=C(Nc1ccc(C23CC4CC(CC(C4)C2)C3)cc1)c1ccc(Oc2ccccc2C(=O)O)cc1 [Compound 215]
99,,O=C(O)c1ccccc1Nc1cccc(S(=O)(=O)Nc2ccc(C34CC5CC(CC(C5)C3)C4)cc2)c1 [Compound 246]
40,,CN(C(=O)c1ccc(N(C)c2ccccc2C(=O)O)cc1)c1ccc(C23CC4CC(CC(C4)C2)C3)cc1 [Compound 149]
84,,O=C(O)c1cccc(Nc2cccc(C(=O)Nc3ccc(C45CC6CC(CC(C6)C4)C5)cc3)c2)c1 [Compound 235]
75,,CCN(c1ccc(N(C)c2ccc(C34CC5CC(CC(C5)C3)C4)cc2)cc1)c1ccccc1C(=O)O [Compound 171]
0,,CN(c1ccc(N2CCN(c3ccc(C45CC6CC(CC(C6)C4)C5)cc3)CC2)cc1)c1ccccc1C(=O)O [Compound 218]
46,,CCCCN(CCCC)C(=O)c1ccc(Nc2ccc(Nc3ncccc3C(=O)O)cc2)cc1 [Compound 256]
98,,O=C(O)c1cccnc1Nc1cccc(Nc2ccc(C34CC5CC(CC(C5)C3)C4)cc2Cl)c1 [Compound 114]
9,,CN(c1ccc(N(C)c2ccccc2C(=O)O)cc1)c1cccc(C(=O)NC23CC4CC(CC(C4)C2)C3)c1 [Compound 233]
100,,CN(c1ccc(OCC23CC4CC(CC(C4)C2)C3)cc1)c1ccc(N(C)c2ccccc2C(=O)O)cc1 [Compound 208]
71,,O=C(O)c1ccccc1Nc1ccc(S(=O)(=O)Nc2ccc(C34CC5CC(CC(C5)C3)C4)cc2Cl)cc1 [Compound 260]
90,,O=C(O)c1ccccc1Nc1cc(Nc2ccc(C34CC5CC(CC(C5)C3)C4)cc2)cc(C(F)(F)F)c1 [Compound 26]
27,,COc1ccc(C(=O)O)c(Nc2ccc(Nc3ccc(C45CC6CC(CC(C6)C4)C5)cc3)cc2)c1 [Compound 251]
54,,CC(C)c1ccccc1-c1ccc(Nc2ccc(Nc3cccc(C(=O)O)n3)cc2)cc1 [Compound 209]
89,,O=C(NC12CC3CC(CC(C3)C1)C2)c1ccc(Nc2ccc(Nc3ccccc3C(=O)O)cc2)cc1 [Compound 98]
14,,O=C(O)c1cccnc1CN1CCN(Cc2ccc(C34CC5CC(CC(C5)C3)C4)cc2Cl)CC1 [Compound 107]

inhibition at 10 µM [%],% of inhibition of TEAD2 palmitoylation at 10 μM [%],SMILES
35,,O=S1(=O)N=C(Nc2ccc(Nc3ccc(C45CC6CC(CC(C6)C4)C5)cc3Cl)cc2)c2ccccc21 [Compound 18]
7,,COC(=O)c1cccnc1Nc1ccc(Nc2ccc(C34CC5CC(CC(C5)C3)C4)cc2Cl)cc1 [Compound 17]
85,,CN(c1ccc(C#Cc2ccc(C34CC5CC(CC(C5)C3)C4)cc2)cc1)c1ccccc1C(=O)O [Compound 191]
72,,O=C(O)C1CNCC1Nc1ccc(Nc2ccc(C34CC5CC(CC(C5)C3)C4)cc2Cl)cc1 (centres unmarked) [Compound 93]
67,,O=C(O)c1ncccc1Nc1ccc(Nc2ccc(C34CC5CC(CC(C5)C3)C4)cc2Cl)cc1 [Compound 82]
0,,Clc1cc(C23CC4CC(CC(C4)C2)C3)ccc1Nc1ccc(Nc2ccccn2)cc1 [Compound 10]
10,,O=C(CCc1ccc(Nc2ccccc2C(=O)O)cc1)Nc1ccc(C23CC4CC(CC(C4)C2)C3)cc1 [Compound 220]
81,,CCCCN(c1ccccc1)c1ccc(NC(=O)c2cccc(Nc3ncccc3C(=O)O)c2)cc1 [Compound 266]
100,,CN(c1cnc(Nc2ccc(C34CC5CC(CC(C5)C3)C4)cc2Cl)cn1)c1ccccc1C(=O)O [Compound 144]
78,,O=C(O)c1ccc(Nc2ccc(Nc3ccc(C45CC6CC(CC(C6)C4)C5)cc3)cc2)cc1 [Compound 81]
0,,O=C(O)C1CCCC1Nc1cc(Nc2ccc(C34CC5CC(CC(C5)C3)C4)cc2Cl)cc(C(F)(F)F)c1 (centres unmarked) [Compound 64]
70,,Cc1ccccc1-c1cc(Cl)c(Nc2ccc(Nc3ccccc3C(=O)O)cc2)cc1C [Compound 61]
90,,O=C(O)c1ccnc(Nc2ccc(Nc3ccc(C45CC6CC(CC(C6)C4)C5)cc3Cl)cc2)c1 [Compound 89]
86,,O=C(O)Cn1ccc2ccc(Nc3ccc(C45CC6CC(CC(C6)C4)C5)cc3Cl)cc21 [Compound 126]
0,,COC(=O)c1ccccc1Nc1ccc(Nc2ccc(C34CC5CC(CC(C5)C3)C4)cc2)cc1 [Compound 2]
,43,O=C(O)C1CCCC1Nc1ccc(Nc2ccc(C34CC5CC(CC(C5)C3)C4)cc2Cl)cc1 (centres unmarked) [Compound 40]
99,,CN(c1ccc(C23CC4CC(CC(C4)C2)C3)cc1)S(=O)(=O)c1ccc(Nc2ncccc2C(=O)O)cc1 [Compound 207]
32,,CN(c1ccc(N2CC(Oc3ccc(C45CC6CC(CC(C6)C4)C5)cc3)C2)cc1)c1ccccc1C(=O)O [Compound 200]
95,,O=C(O)c1cccnc1Cc1ccc(Nc2ccc(C34CC5CC(CC(C5)C3)C4)cc2Cl)cc1 [Compound 122]
0,,CC12CC3CC(C)(C1)CC(c1ccc(NS(=O)(=O)c4ccc(Nc5ccccc5C(=O)O)cc4)c(Cl)c1)(C3)C2 [Compound 264]

# Same assay, conditions: compound at 10 μM; Table 3
row,inhibition at 10 µM [%],SMILES
1,47,COc1ccc(Nc2ccc(N(C)c3ccc(C(F)(F)F)cc3)cc2)c(C(N)=O)c1 [CP-605]
2,75,O=C(O)c1ccccc1Nc1cnc(Oc2ccc(C34CC5CC(CC(C5)C3)C4)cc2Cl)cn1 [CP-540]
3,68,Cc1cc(N(C)c2ccc(C3CCCCC3)cc2)ccc1Nc1cccc(C(=O)O)n1 [CP-636]
4,36,COc1ccc(Nc2ccc(N(C)c3ccc(C4CCCCC4)cc3)nc2)nc1C(=O)O [CP-654]
5,77,COc1ccc(Nc2cc(Nc3ccc(C4CCCCC4)cc3)cc(C(F)(F)F)c2)nc1C(=O)O [CP-661]
6,46,COc1ccc(Nc2ccc(Oc3ccc(C(F)(F)F)cc3Cl)nc2)c(C(=O)O)c1 [CP-601]
7,42,COc1ccc(Nc2ccc(N(C)c3ccc(C(F)(F)F)cn3)cc2)c(C(=O)O)c1 [CP-576]
8,45,CN(c1ccc(C2CCCCC2)cc1)c1cc(C2CC2)c(Nc2cccc(C(=O)O)n2)cn1 [CP-663]
9,66,O=C(O)c1cccc(Nc2cc(Nc3ccc(C4CCCCC4)cc3Cl)cc(C(F)(F)F)c2)n1 [CP-660]
10,49,COc1ccc(Nc2ccc(N(C)c3ccc(Cl)cc3Cl)cc2)c(C(=O)O)c1 [CP-542]
11,93,COc1ccc(Nc2ccc(Nc3ccc(C45CC6CC(CC(C6)C4)C5)cc3Cl)cc2)nc1C(=O)O [CP-650]
12,72,COc1ccc(Nc2ccc(N(C)c3ccc(C(F)(F)F)cc3)cc2F)c(C(=O)O)c1 [CP-572]
13,79,CNS(=O)(=O)c1cccc(Nc2ccc(Nc3ccc(C45CC6CC(CC(C6)C4)C5)cc3Cl)cc2)n1 [CP-694]
14,37,Cc1cc(N(C)c2ccc(C3CCCCC3)cc2)ncc1Nc1cccc(C(=O)O)n1 [CP-652]
15,57,COc1ccc(Nc2cnc(Oc3ccc(C4CCCCC4)cc3Cl)cc2C)c(C(=O)O)c1 [CP-599]
16,46,CN(c1ccc(Nc2cccc(C(=O)O)n2)cn1)c1ccc(C2CCCCC2)cc1Cl [CP-659]
17,5,CNCc1ccc(Nc2ccc(N(C)c3ccc(C4CCCCC4)cc3)cc2C)c(C(=O)O)c1 [CP-637]
18,48,COc1ccc(Nc2ccc(N(C)c3ccc(OC(F)(F)F)cc3)nc2)c(C(=O)O)c1 [CP-596]
19,58,Cc1cc(N(C)c2ccc(C3CCCCC3)cc2)ccc1Nc1ccc(OC(F)(F)F)cc1C(=O)O [CP-580]
20,0,COc1ccc(Nc2ccc(N(C)c3ccc(C4CCN(C)CC4)cc3)cc2)c(C(=O)O)c1 [CP-582]
21,46,COc1ccc(Nc2ccc(N(C)c3ccc(OCC(F)(F)F)cc3)cc2F)c(C(=O)O)c1 [CP-568]
22,24,CNC(=O)c1nc(Nc2ccc(N(C)c3ccc(C4CCCCC4)cc3)cc2C)ccc1S(=O)(=O)NC [CP-653]
23,18,COc1ccc(Nc2ccc(N(C)c3ccc(N4CCOCC4)cc3)cc2)c(C(=O)O)c1 [CP-547]

row,SMILES,inhibition at 10 µM [%]
1,Cc1cc(N(C)c2ccc(C3CCCCC3)cc2)ccc1Nc1ccc(CN)cc1C(=O)O [CP-635],27

# Reference: patent publication US12187722B2, “Small molecule inhibitors of TEAD transcription factors” (The General Hospital Corporation, priority 2019, dated 2025)
